The test has as its system AMPK. Description: AMPK enzyme activity assay (Delfia technology, AMARA peptide substrate). Format: biochemical. To be noted: compound at 30 μM vs AMP at 200 μM. The method, boiled down:
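Value is the ratio of compound (30 μM) to AMP (200 μM) response, each as % of basal control. Phosphorylation of the AMARA peptide after AMPK addition was read by Delfia with an anti-phosphoserine antibody.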

The results in this text go back to US9365584B2, “Thieno [2,3-B] pyridinedione activators of AMPK and therapeutic uses thereof” (Poxel, priority 2009, dated 2016).

The structures appear in SMILES notation.

Take `COc1cccc(C2(F)C(=O)Nc3scc(-c4ccccc4)c3C2=O)c1` (stereo not shown) [No 182, 5-fluoro-5-(3-methoxyphenyl)-3-phenyl-7H-thieno[2,3-b]pyridine-4,6-dione]: the “Activity: Ratio between the % of control (basal activity) of compound of formula (1) at 30 μM and the % of control (basal activity) of AMP (natural substrate) at 200 μM” value (“Activity: Ratio between the % of control” below) is “C (C≧75%)”.

`COc1cccc(C2(F)C(=O)Nc3sc(F)c(-c4ccccc4)c3C2=O)c1` (stereo not shown) [No 183, 2,5-difluoro-5-(3-methoxyphenyl)-3-phenyl-7H-thieno[2,3-b]pyridine-4,6-dione]: the “Activity: Ratio between the % of control” value is recorded as “B (50%≦B<75%)”. `Cc1cccc(C2(F)C(=O)Nc3sc(Cl)c(-c4ccc(F)cc4O)c3C2=O)c1` (stereo not shown) [No 184, 2-chloro-5-fluoro-3-(4-fluoro-2-hydroxy-phenyl)-5-(m-tolyl)-7H-thieno[2,3-b]pyridine-4,6-dione]: the “Activity: Ratio between the % of control” value is listed as “C (C≧75%)”.

Regarding `Cc1c(F)ccc(-c2c(Cl)sc3c2C(=O)C(F)(c2ccccc2)C(=O)N3)c1O` (stereo not shown) [No 185, 2-chloro-5-fluoro-3-(4-fluoro-2-hydroxy-3-methyl-phenyl)-5-phenyl-7H-thieno[2,3-b]pyridine-4,6-dione], the “Activity: Ratio between the % of control” value is listed as “C (C≧75%)”. Turning to `Cc1cccc(C2(F)C(=O)Nc3sc(Cl)c(-c4ccc(C)c(C)c4)c3C2=O)c1` (stereo not shown) [No 186, 2-chloro-3-(3,4-dimethylphenyl)-5-fluoro-5-(m-tolyl)-7H-thieno[2,3-b]pyridine-4,6-dione], the “Activity: Ratio between the % of control” value is “C (C≧75%)”. In the case of `Cc1ccc(-c2c(Cl)sc3c2C(=O)C(F)(c2cccnc2)C(=O)N3)cc1C` (stereo not shown) [No 187, 2-chloro-3-(3,4-dimethylphenyl)-5-fluoro-5-(3-pyridyl)-7H-thieno[2,3-b]pyridine-4,6-dione] it was “C (C≧75%)”. On to `O=C1Nc2scc(-c3ccc(Br)cc3)c2C(=O)C1(F)c1ccccn1` (stereo not shown) [No 188, 3-(4-bromophenyl)-5-fluoro-5-(2-pyridyl)-7H-thieno[2,3-b]pyridine-4,6-dione], for which the “Activity: Ratio between the % of control” value was “A (0%<A<50%)”. In the case of `O=C1Nc2scc(-c3ccc(F)cc3)c2C(=O)C1(F)c1ccccc1` (stereo not shown) [No 189, 5-fluoro-3-(4-fluorophenyl)-5-phenyl-7H-thieno[2,3-b]pyridine-4,6-dione] it was “A (0%<A<50%)”; in that of `O=C1Nc2scc(-c3cccc(F)c3)c2C(=O)C1(F)c1ccccc1` (stereo not shown) [No 190, 5-fluoro-3-(3-fluorophenyl)-5-phenyl-7H-thieno[2,3-b]pyridine-4,6-dione], “B (50%≦B<75%)”; in that of `Cc1ccc(-c2c(Cl)sc3c2C(=O)C(F)(c2ccccc2)C(=O)N3)c(O)c1F` (stereo not shown) [No 191, 2-chloro-5-fluoro-3-(3-fluoro-2-hydroxy-4-methyl-phenyl)-5-phenyl-7H-thieno[2,3-b]pyridine-4,6-dione], “C (C≧75%)”. Take `Cc1ccc(-c2c(C)sc3c2C(=O)C(F)(c2ccccc2)C(=O)N3)c(O)c1F` (stereo not shown) [No 192, 5-fluoro-3-(3-fluoro-2-hydroxy-4-methyl-phenyl)-2-methyl-5-phenyl-7H-thieno[2,3-b]pyridine-4,6-dione]: the “Activity: Ratio between the % of control” value is on record as “C (C≧75%)”.

Take `O=C1Nc2scc(-c3cnccn3)c2C(=O)C1(F)c1ccccc1` (stereo not shown) [No 193, 5-fluoro-5-phenyl-3-pyrazin-2-yl-7H-thieno[2,3-b]pyridine-4,6-dione]: the “Activity: Ratio between the % of control” value is on record as “A (0%<A<50%)”. Regarding `O=C1Nc2scc(-c3ccc(O)c(F)c3)c2C(=O)C1(F)c1ccccc1` (stereo not shown) [No 194, 5-fluoro-3-(3-fluoro-4-hydroxy-phenyl)-5-phenyl-7H-thieno[2,3-b]pyridine-4,6-dione], the “Activity: Ratio between the % of control” value is reported as “C (C≧75%)”.

As for `COc1ccc(-c2c(F)sc3c2C(=O)C(F)(c2ccccc2)C(=O)N3)cc1F` (stereo not shown) [No 195, 2,5-difluoro-3-(3-fluoro-4-methoxy-phenyl)-5-phenyl-7H-thieno[2,3-b]pyridine-4,6-dione], the “Activity: Ratio between the % of control” value is “C (C≧75%)”. `O=C(O)c1cccc(-c2csc3c2C(=O)C(F)(c2ccccc2)C(=O)N3)c1` (stereo not shown) [No 196, 3-(5-fluoro-4,6-dioxo-5-phenyl-7H-thieno[2,3-b]pyridin-3-yl)benzoic acid]: the “Activity: Ratio between the % of control” value was “A (0%<A<50%)”. Take `O=C(O)c1cccc(-c2c(F)sc3c2C(=O)C(F)(c2ccccc2)C(=O)N3)c1` (stereo not shown) [No 197, 3-(2,5-difluoro-4,6-dioxo-5-phenyl-7H-thieno[2,3-b]pyridin-3-yl)benzoic acid]: the “Activity: Ratio between the % of control” value is given as “A (0%<A<50%)”. For `O=C(O)c1ccc(-c2csc3c2C(=O)C(F)(c2ccccc2)C(=O)N3)cc1` (stereo not shown) [No 198, 4-(5-fluoro-4,6-dioxo-5-phenyl-7H-thieno[2,3-b]pyridin-3-yl)benzoic acid], the “Activity: Ratio between the % of control” value is listed as “A (0%<A<50%)”. As for `COc1ccc(-c2csc3c2C(=O)C(F)(c2ccc(F)cc2)C(=O)N3)cc1` (stereo not shown) [No 199, 5-fluoro-5-(4-fluorophenyl)-3-(4-methoxyphenyl)-7H-thieno[2,3-b]pyridine-4,6-dione], the entry is “B (50%≦B<75%)”.

`COc1ccc(-c2c(F)sc3c2C(=O)C(F)(c2ccc(F)cc2)C(=O)N3)cc1` (stereo not shown) [No 200, 2,5-difluoro-5-(4-fluorophenyl)-3-(4-methoxyphenyl)-7H-thieno[2,3-b]pyridine-4,6-dione]: the “Activity: Ratio between the % of control” value is “B (50%≦B<75%)”. Regarding `COc1ccc(-c2csc3c2C(=O)C(F)(c2ccccc2)C(=O)N3)cc1` (stereo not shown) [No 201, 5-fluoro-3-(4-methoxyphenyl)-5-phenyl-7H-thieno[2,3-b]pyridine-4,6-dione], the “Activity: Ratio between the % of control” value is listed as “B (50%≦B<75%)”. Consider `COc1ccc(-c2c(F)sc3c2C(=O)C(F)(c2ccccc2)C(=O)N3)cc1` (stereo not shown) [No 202, 2,5-difluoro-3-(4-methoxyphenyl)-5-phenyl-7H-thieno[2,3-b]pyridine-4,6-dione], for which the “Activity: Ratio between the % of control” value was “B (50%≦B<75%)”. In the case of `O=C1Nc2scc(-c3ccc(O)cc3)c2C(=O)C1(F)c1ccccc1` (stereo not shown) [No 203, 5-fluoro-3-(4-hydroxyphenyl)-5-phenyl-7H-thieno[2,3-b]pyridine-4,6-dione] it was “C (C≧75%)”.
